How the values were obtained:
Borrelia burgdorferi = test: In vitro neutralization of Borrelia burgdorferi by Day 30 serum samples from immunized mice; format: in vivo; conditions: Day 30 sera of C3H/HeJ mice, n=6 per group; dosing at day 1 (77 µg/mouse per immunization, 10 µg QS-21/mouse)
Experimental: A pilot study in mice was conducted to determine the safety and in vitro efficacy of the BBGL-1 and BBGL-2 liposome vaccines in the absence or presence of the adjuvant QS-21 (Desert King International, San Diego, CA USA). Eighty-four (42 male, 42 female) C3H/HeJ mice (The Jackson Laboratory, Bar Harbor, ME USA), at approximately 7 weeks were used in the study, which is outlined in Table 17a and 17b.
7 Group of Mice (6 male and 6 female in each group) were given either 1) adjuvant alone, 2) Immunization A, 3) Adjuvant + Immunization A, 4) Immunization B, 5) Adjuvant + Immunization B, 6) Immunization A + Immunization B, or 7) Adjuvant + Immunization A + Immunization B
Immunization A and Immunization B were administered at 77 µg/mouse doses at day 1 and Day 30. Groups receiving adjuvant received 10 µg QS-21/mouse at Day 1 and Day 30.
Whole blood was collected into serum separator tubes at baseline and days 7, 15, 30, 45, and 60. Blood was allowed to clot and centrifuged at 1500xg and 10° C. for 15 minutes. Serum was aliquoted and stored at -30° C.
Serum aliquots were evaluated after 30 days, for neutralizing antibodies against Borrelia burgdorferi, B. mayonii, B. afzelii, and B. garinii using laboratory developed assays.
In vitro neutralization of Borrelia burgdorferi from Day 30 assessed with half of the mouse serum samples (n=6 per group) are shown in FIG. 7a.

[1] = tested on: IgG in Lyme Disease patient sera; test: MSD-ECL assay with Biotin-BBGL-1 / Biotin-BBGL-2 coated streptavidin plates, anti-IgG Fc detection; format: binding, human; conditions: biotinylated antigen coated at 4 ug/mL; for IgG titer, EU: NC= 166.75
Experimental: (§1) A Meso Scale Discovery Electrochemiluminescence (MSD-ECL) assay was developed using Biotin-BBGL-1 and Biotin-BBGL-2 to measure antibody titers in Lyme Disease patient samples. The assay involved first blocking MSD streptavidin gold plate with 4% BGG (bovine gamma globulin in PBS), washing the plates with PBS and the coating Biotin-BBGL-1 and Biotin-BBGL-2 at concentration of 4 ug/mL (diluted in 4% BGG) for coating for IgG side of plate and at concentration of 1 ug/mL (diluted in 4% BGG) for coating for IgM side of plate. Serum samples (diluted 1:5) were then added to each well, incubated, and washed.
(§2) Detection reagents (Sulfo tag anti-lgG Fc or anti-IgM) were then added, incubated, and washed, followed by reading the plates on a Sector Imager (Meso Scale Diagnostic, Rockville, MD USA).

[2] = tested on: IgM in Lyme Disease patient sera; test: MSD-ECL assay with Biotin-BBGL-1 / Biotin-BBGL-2 coated streptavidin plates, anti-IgM detection; format: binding, human; conditions: biotinylated antigen coated at 1 ug/mL; for IgM titer, EU: NC= 189.75
Experimental: as §1, §2

Row | Compound | neutralization activity (Borrelia burgdorferi) | IgG titer, Fold/Baseline ([1]; patient L1 serum diluted 1:5) | IgG titer, EU ([1]; patient L1 serum diluted 1:5) | IgG titer, Fold/Baseline ([1]; patient L2 serum diluted 1:5) | IgG titer, EU ([1]; patient L2 serum diluted 1:5) | IgG titer, Fold/Baseline ([1]; patient L3 serum diluted 1:5) | IgG titer, EU ([1]; patient L3 serum diluted 1:5) | IgM titer, Fold/Baseline ([2]; patient L1 serum diluted 1:5) | IgM titer, EU ([2]; patient L1 serum diluted 1:5) | IgM titer, Fold/Baseline ([2]; patient L2 serum diluted 1:5) | IgM titer, EU ([2]; patient L2 serum diluted 1:5) | IgM titer, Fold/Baseline ([2]; patient L3 serum diluted 1:5) | IgM titer, EU ([2]; patient L3 serum diluted 1:5)
1 | QS-21 | > 15% | – | – | – | – | – | – | – | – | – | – | – | –
2 | CCCCCCCCCCCCCCCC(=O)OC[C@H]1O[C@@H](O[C@H]2CC[C@@]3(C)C(=CC[C@H]4[C@@H]5CC[C@H]([C@H](C)CCCC(C)C)[C@@]5(C)CC[C@@H]43)C2)[C@H](O)[C@@H](O)[C@H]1O [BBGL1, cholesteryl 6-O-palmitoyl-β-D-galactopyranoside] | – | 1.3 Fold/Baseline | 218.50 EU | 0.9 Fold/Baseline | 143.50 EU | 1.0 Fold/Baseline | 166.00 EU | 21 Fold/Baseline | 4055.50 EU | 2 Fold/Baseline | 390.00 EU | 7 Fold/Baseline | 1338.00 EU
3 | CCCCCCCC/C=C\CCCCCCCC(=O)OC[C@H](CO[C@H]1O[C@H](CO)[C@H](O)[C@H](O)[C@H]1O)OC(=O)CCCCCCCCCCCCCCC [BBGL2, 1-oleoyl-2-palmitoyl-3-(α-D-galactosyl)-sn-glycerol] | – | 16 Fold/Baseline | 2720.00 EU | 4 Fold/Baseline | 619.50 EU | 1.1 Fold/Baseline | 178.00 EU | 18 Fold/Baseline | 3458.00 EU | 2 Fold/Baseline | 344.50 EU | 6 Fold/Baseline | 1229.50 EU

— patent US20230338495A1, “Vaccine Compositions and Antibodies For Lyme Disease” (priority 2020, published 2023)
